In patent EP0900210B1, “ANTIVIRALLY ACTIVE HETEROCYCLIC AZAHEXANE DERIVATIVES” (Novartis AG, priority 1996, dated 1997):
pIC50: −log10 of the molar value.

Target: T1, HIV-1-protease (Human immunodeficiency virus type 1 group M subtype B, UniProt P04585)
T1 construct: made in house
Test: Inhibition of HIV-1-protease with icosapeptide substrate […] (HPLC)
Type: biochemical
Conditions: icosapeptide […] 122 µM, 20 mM MES pH 6.0, one hour at 37°C; read-out: IC50
Experimental: The inhibitory action of the compounds of formula I on the proteolytic activity of HIV-1-protease can be shown, for example, according to known procedures (see A. D. Richards et al., J. Biol. Chem. 265(14), 7733-7736 (1990)). In that method the inhibition of the action of HIV-1-protease (preparation: see S. Billich et al., J. Biol. Chem. 263(34), 17905-17908 (1990)) is measured in the presence of the icosapeptide […] (a synthetic substrate of HIV-1-protease, prepared by peptide synthesis in accordance with known procedures (see J. Schneider et al., Cell 54, 363-368 (1988)), which contains as substrate analogue one of the cleavage sites of the gag-precursor protein (natural substrate of HIV-1-protease). That substrate and its cleavage products are analysed by high performance liquid chromatography (HPLC).
The test compound is dissolved in dimethyl sulfoxide. The enzymatic test is carried out by adding suitable dilutions of the inhibitor in 20 mM β-morpholinoethanesulfonic acid (MES) buffer pH 6.0 to the test mixture. That mixture consists of the above-mentioned icosapeptide (122 µM) in 20 mM MES-buffer pH 6.0. 100 µl are used per test batch. The reaction is started by the addition of […] of HIV-1-protease solution and is stopped after one hour's incubation at 37°C by the addition of 10 µl of 0.3M HClO4. After centrifugation of the sample at 10 000 x g for 5 minutes, 20 µl of the resulting supernatant are applied to a 125 x 4.6 mm Nucleosil® C18-5m-HPLC column (reversed-phase material supplied by Macherey & Nagel, Düren, FRG, based on silica gel that has been charged with C18alkyl chains). The uncleaved icosapeptide and its cleavage products are eluted from the column by means of the following gradient: 100 % eluant 1 → 50 % eluant 1 + 50 % eluant 2 (eluant 1: 10 % acetonitrile, 90 % H2O, 0.1 % trifluoroacetic acid (TFA); eluant 2: 75 % acetonitrile, 25 % H2O, 0.08 % TFA) for 15 minutes, throughflow rate 1 ml/min. The quantification of the eluted peptide fragments is carried out by measuring the peak height of the cleavage product at 215 nm.
Using the test system described above with the icosapeptide […], the IC50 values given below are obtained for the following Examples: […]

Question: How did the pIC50 turn out when `CC[C@H](C)[C@H](NC(=O)OC)C(=O)NN(Cc1ccc(-c2nnn(C(C)(C)c3ccccc3)n2)cc1)C[C@H](O)[C@H](Cc1ccccc1)NC(=O)[C@@H](NC(=O)OC)C(C)(C)C` [Example 28, 1-{4-[2-(1-Methyl-1-phenyl-ethyl)-2H-tetrazol-5-yl]-phenyl}-4(S)-hydroxy-2-N-(N-methoxycarbonyl-(L)-iso-leucyl)amino-5(S)-N-(N-methoxycarbonyl-(L)-tert-leucyl)amino-6-phenyl-2-azahexane] was run?
Answer: The pIC50 was 7.08.

Question: `CC[C@H](C)[C@H](NC(=O)OC)C(=O)NN(Cc1ccc(-c2nnn[nH]2)cc1)C[C@H](O)[C@H](Cc1ccccc1)NC(=O)[C@@H](NC(=O)OC)C(C)(C)C` [Example 29, 1-[4-(Tetrazol-5-yl)-phenyl]-4(S)-hydroxy-2-N-(N-methoxycarbonyl-(L)-iso-leucyl)amino-5(S)-N-(N-methoxycarbonyl-(L)-tert-leucyl)amino-6-phenyl-2-azahexane] was tested. Which pIC50 did it give?
Answer: The pIC50 was 7.85.

Question: How did the pIC50 turn out when `CC[C@H](C)[C@H](NC(=O)OC)C(=O)NN(Cc1ccc(-c2nnn(C)n2)cc1)C[C@H](O)[C@H](Cc1ccccc1)NC(=O)[C@@H](NC(=O)OC)C(C)(C)C` [Example 30, 1-[4-(2-Methyl-2H-tetrazol-5-yl)-phenyl]-4(S)-hydroxy-2-N-(N-methoxycarbonyl-(L)-iso-leucyl)amino-5(S)-N-(N-methoxycarbonyl-(L)-tert-leucyl)amino-6-phenyl-2-azahexane] was run?
Answer: The pIC50 was 7.27.

Question: With `CC[C@H](C)[C@H](NC(=O)OC)C(=O)N[C@@H](Cc1ccccc1)[C@@H](O)CN(Cc1ccc(-c2nnn(C(C)(C)c3ccccc3)n2)cc1)NC(=O)[C@@H](NC(=O)OC)C(C)(C)C` [Example 31, 1-{4-[2-(1-Methyl-1-phenyl-ethyl)-2H-tetrazol-5-yl]-phenyl}-4(S)-hydroxy-2-N-(N-methoxycarbonyl-(L)-tert-leucyl)amino-5(S)-N-(N-methoxycarbonyl-(L)-iso-leucyl)amino-6-phenyl-2-azahexane] as the compound, how does the pIC50 read?
Answer: The pIC50 was 6.77.

Question: With `COC(=O)N[C@H](C(=O)N[C@@H](Cc1ccccc1)[C@@H](O)CN(Cc1ccc(-c2nnn(C(C)(C)C)n2)cc1)NC(=O)[C@@H](NC(=O)OC)C(C)(C)C)C(C)(C)C` [Example 34, 1-[4-(2-tert-Butyl-2H-tetrazol-5-yl)-phenyl]-4(S)-hydroxy-5(S)-2,5-bis[N-(N-methoxycarbonyl-(L)-tert-leucyl)amino]-6-phenyl-2-azahexane] as the compound, how does the pIC50 read?
Answer: Its pIC50 is 7.14.

Question: With `COC(=O)N[C@H](C(=O)N[C@@H](Cc1ccccc1)[C@@H](O)CN(Cc1ccc(-c2nnn(C(C)(C)C)n2)cc1)NC(=O)[C@@H](NC(=O)OC)C(C)(C)C)C(C)C` [Example 35, 1-[4-(2-tert-Butyl-2H-tetrazol-5-yl)-phenyl]-4(S)-hydroxy-2-N-(N-methoxycarbonyl-(L)-tert-leucyl)amino-5(S)-N-(N-methoxycarbonyl-(L)-valyl)amino-6-phenyl-2-azahexane] as the compound, how does the pIC50 read?
Answer: Its pIC50 is 7.24.

Question: How did the pIC50 turn out when `COC(=O)N[C@H](C(=O)N[C@@H](Cc1ccccc1)[C@@H](O)CN(Cc1ccc(-c2ccccn2)cc1)NC(=O)[C@@H](NC(=O)OC)C(C)C)C(C)C` [Example 37, 1-[4-(Pyridin-2-yl)-phenyl]-4(S)-hydroxy-5(S)-2,5-bis[N-(N-methoxycarbonyl-(L)-valyl)amino]-6-phenyl-2-azahexane] was run?
Answer: The pIC50 was 7.54.

Question: `CCOC(=O)N[C@H](C(=O)N[C@@H](Cc1ccccc1)[C@@H](O)CN(Cc1ccc(-c2ccccn2)cc1)NC(=O)[C@@H](NC(=O)OCC)C(C)C)C(C)C` [Example 38, 1-[4-(Pyridin-2-yl)-phenyl]-4(S)-hydroxy-5(S)-2,5-bis[N-(N-ethoxycarbonyl-(L)-valyl)amino]-6-phenyl-2-azahexane] was tested. Which pIC50 did it give?
Answer: Its pIC50 is 7.07.

Question: With `COC(=O)N[C@H](C(=O)N[C@@H](Cc1ccccc1)[C@@H](O)CN(Cc1ccc(-c2cccnc2)cc1)NC(=O)[C@@H](NC(=O)OC)C(C)C)C(C)C` [Example 39, 1-[4-(Pyridin-3-yl)-phenyl]-4(S)-hydroxy-5(S)-2,5-bis[N-(N-methoxycarbonyl-(L)-valyl)amino]-6-phenyl-2-azahexane] as the compound, how does the pIC50 read?
Answer: Its pIC50 is 7.92.
